Assay results from patent publication US20060160070A1, “Association-based epitome design” (Microsoft Corporation, priority 2004, published 2006).

Experiments:
[1] = target: T1, HLA A*0201 (Homo sapiens, UniProt P04439, D140Y/D185E/D98H/E176V/E277Q/G131W/G231S/I119V/I121R/I166T/I218V/L300P/L318F/N151K/N90K/P208A/P217A/Q86G/Q94H/R138H/R169H/T345S); assay: ITOPIA off-rate assay; assay type: binding; conditions: 37° C., one-phase exponential decay
[2] = target: T2, HLA A*1101 (Homo sapiens, UniProt P04439, A114D/D185E/E176A/F33Y/L180Q/S129P/T187R); assay: ITOPIA off-rate assay; assay type: binding; conditions: 37° C., one-phase exponential decay
T2 construct: purchased

[3] = target: T3, HLA A*0301 (Homo sapiens, UniProt P04439); assay: ITOPIA off-rate assay; assay type: binding; conditions: 37° C., one-phase exponential decay
T3 construct: purchased

[4] = target: T4, HLA B*1501 (Homo sapiens, UniProt P01889, A329T/A93T/A95T/C349S/D201E/D98Y/E187L/E204Q/E69M/E70A/K202T/N87E/Q94N/R155S/R180W/S121R/S35A/S48A/V306I/V36M/Y140S/Y91S); assay: Multi-parametric analysis iScore; assay type: binding; design: scale not given here; conditions: index integrating t1/2 and ED50
T4 construct: purchased
Outline: (§1)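 iScore = multi-parametric integration of t½ and ED50; indicates peptide–MHC stable complex reconstitution, i.e. overall binding level.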

[5] = target: T1, HLA A*0201; assay: Multi-parametric analysis iScore; assay type: binding; design: scale not given here; conditions: index integrating t1/2 and ED50
Outline: as §1

[6] = target: T5, HLA A*2402 (Homo sapiens, UniProt P04439, D101N/D140Y/D185E/E176V/E190D/F33S/G103R/G107R/I119L/I121M/I306V/K335N/L105A/L180Q/L300P/N151K/N90K/Q86E/Q94H/R106L/R138H/R89G/T104I/T345S/V100E/W191G/Y123F); assay: Multi-parametric analysis iScore; assay type: binding; design: scale not given here; conditions: index integrating t1/2 and ED50
Outline: as §1

[7] = target: T6, HLA B*0702 (Homo sapiens, UniProt P01889); assay: Multi-parametric analysis iScore; assay type: binding; design: scale not given here; conditions: index integrating t1/2 and ED50
T6 construct: purchased
Outline: as §1

[8] = target: T2, HLA A*1101; assay: Multi-parametric analysis iScore; assay type: binding; design: scale not given here; conditions: index integrating t1/2 and ED50
Outline: as §1

[9] = target: T3, HLA A*0301; assay: Multi-parametric analysis iScore; assay type: binding; design: scale not given here; conditions: index integrating t1/2 and ED50
Outline: as §1

[10] = target: T7, HLA B*0801 (Homo sapiens, UniProt P01889, A93T/A95T/D138N/E176V/E187T/K202T/Q94N/R180D/S35A/V36M/Y33D/Y91F); assay: Multi-parametric analysis iScore; assay type: binding; design: scale not given here; conditions: index integrating t1/2 and ED50
T7 construct: purchased
Outline: as §1

[11] = target: T8, HLA A*0101 (Homo sapiens, UniProt P04439, A114D/A174V/A182V/D101N/D185E/E176A/E190D/L180R/Q94H/R68K/S129P/T187R/V100A/V91M/W191G); assay: Multi-parametric analysis iScore; assay type: binding; design: scale not given here; conditions: index integrating t1/2 and ED50
T8 construct: purchased
Outline: as §1

[12] = target: T4, HLA B*1501; assay: ITOPIA peptide binding assay; conditions: 1.11×10^−4M of peptide
Outline: (§2)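 MHC-coated plates for each HLA allele were incubated with test peptides at 1.11×10^−4M under standardized conditions, read by ELISA in duplicate. Binding is given as percent of a same-concentration positive control peptide. Binders went on to off-rate (t1/2) and titrated affinity (ED50) tests.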

[13] = target: T1, HLA A*0201; assay: ITOPIA peptide binding assay; conditions: 1.11×10^−4M of peptide
Outline: as §2

[14] = target: T5, HLA A*2402; assay: ITOPIA peptide binding assay; conditions: 1.11×10^−4M of peptide
Outline: as §2

[15] = target: T6, HLA B*0702; assay: ITOPIA peptide binding assay; conditions: 1.11×10^−4M of peptide
Outline: as §2

[16] = target: T2, HLA A*1101; assay: ITOPIA peptide binding assay; conditions: 1.11×10^−4M of peptide
Outline: as §2

[17] = target: T3, HLA A*0301; assay: ITOPIA peptide binding assay; conditions: 1.11×10^−4M of peptide
Outline: as §2

[18] = target: T7, HLA B*0801; assay: ITOPIA peptide binding assay; conditions: 1.11×10^−4M of peptide
Outline: as §2

[19] = target: T8, HLA A*0101; assay: ITOPIA peptide binding assay; conditions: 1.11×10^−4M of peptide
Outline: as §2

With KLAGRWPVK [compound 71] the “A*0201 t1/2” value [1] was 1.3 h, the “A*1101 t1/2” value [2] was 2.6 h and the “A*0301 t1/2” value [3] was 4.6 h. The iScore [4] was 0, the iScore [5] was 0.084 and the iScore [6] was 0. For the same sequence, the iScore [7] was 0, the iScore [8] was 0.834 and the iScore [9] was 0.606. The iScore [10] was 0, the iScore [11] was 0 and the “level of binding, percent of positive control peptide binding” value [12] was 2% of positive control. The “level of binding, percent of positive control peptide binding” value [13] was 26% of positive control, the “level of binding, percent of positive control peptide binding” value [14] was 11% of positive control and the “level of binding, percent of positive control peptide binding” value [15] was 0% of positive control. The “level of binding, percent of positive control peptide binding” value [16] was 160% of positive control, the “level of binding, percent of positive control peptide binding” value [17] was 114% of positive control and the “level of binding, percent of positive control peptide binding” value [18] was 4% of positive control. The “level of binding, percent of positive control peptide binding” value [19] was 0% of positive control.
